Measured values published in the supplement of paper PMC10307832.

Experiments:
Test in all cases: relative viability (nuclei count vs DMSO), 5 days (fraction); higher = more cells survive
Crenolanib + Palbociclib = compound: CC1(COc2ccc3c(c2)ncn3-c2ccc3cccc(N4CCC(N)CC4)c3n2)COC1 [Crenolanib] + CC(=O)c1c(C)c2cnc(Nc3ccc(N4CCNCC4)cn3)nc2n(C2CCCC2)c1=O [Palbociclib] (partner 0.5 µM)
Method in brief: (§1)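 Lung cancer cell lines were pin-tool dosed in 1536-well plates on the day after seeding, with either a lone drug or a fixed anchor-drug dose plus five library-drug doses (not always all listed) in √10 steps. Nuclei were counted on 4× images after 5 days. Relative viability is the ratio of treated-well to vehicle-well nuclei counts, with each value a median of duplicate plates.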

Crenolanib + Crizotinib = compound: CC1(COc2ccc3c(c2)ncn3-c2ccc3cccc(N4CCC(N)CC4)c3n2)COC1 [Crenolanib] + C[C@@H](Oc1cc(-c2cnn(C3CCNCC3)c2)cnc1N)c1c(Cl)ccc(F)c1Cl [Crizotinib] (partner 1 µM)
Method in brief: as §1

Tivantinib + Vorinostat = compound: O=C1NC(=O)[C@@H](c2cn3c4c(cccc24)CCC3)[C@@H]1c1c[nH]c2ccccc12 [Tivantinib] + O=C(CCCCCCC(=O)Nc1ccccc1)NO [Vorinostat] (partner 1 µM)
Method in brief: as §1

Tivantinib + Bortezomib = compound: O=C1NC(=O)[C@@H](c2cn3c4c(cccc24)CCC3)[C@@H]1c1c[nH]c2ccccc12 [Tivantinib] + CC(C)C[C@H](NC(=O)[C@H](Cc1ccccc1)NC(=O)c1cnccn1)B(O)O [Bortezomib] (partner 0.002 µM)
Method in brief: as §1

Cell Line | relative viability (Crenolanib + Palbociclib; first compound 0.01 µM) | relative viability (Crenolanib + Palbociclib; first compound 0.03162 µM) | relative viability (Crenolanib + Palbociclib; first compound 0.1 µM) | relative viability (Crenolanib + Palbociclib; first compound 0.3162 µM) | relative viability (Crenolanib + Palbociclib; first compound 1 µM) | relative viability (Crenolanib + Crizotinib; first compound 0.01 µM) | relative viability (Crenolanib + Crizotinib; first compound 0.03162 µM) | relative viability (Crenolanib + Crizotinib; first compound 0.1 µM) | relative viability (Crenolanib + Crizotinib; first compound 0.3162 µM) | relative viability (Crenolanib + Crizotinib; first compound 1 µM) | relative viability (Tivantinib + Vorinostat; first compound 0.01 µM) | relative viability (Tivantinib + Vorinostat; first compound 0.03162 µM) | relative viability (Tivantinib + Vorinostat; first compound 0.1 µM) | relative viability (Tivantinib + Vorinostat; first compound 0.3162 µM) | relative viability (Tivantinib + Bortezomib; first compound 0.01 µM) | relative viability (Tivantinib + Bortezomib; first compound 0.03162 µM) | relative viability (Tivantinib + Bortezomib; first compound 0.1 µM) | relative viability (Tivantinib + Bortezomib; first compound 0.3162 µM)
NCI-H358 | 0.164 | 0.131 | 0.136 | 0.135 | 0.125 | 0.701 | 0.584 | 0.592 | 0.454 | 0.661 | 0.704 | 0.567 | 0.658 | 0.233 | – | – | – | –
NCI-H522 | 1.15 | 1.06 | 0.963 | 0.881 | 0.971 | – | – | – | – | – | 0.906 | 0.754 | 0.973 | 0.548 | – | – | – | –
NCI-H596 | – | – | – | – | – | 1.01 | 1.07 | 0.87 | 0.904 | 1.04 | 0.687 | 0.589 | 0.636 | 0.531 | 1.19 | 1.09 | 1.78 | 0.936
NCI-H1299 | – | – | – | – | – | 0.998 | 0.914 | 0.924 | 0.952 | 0.891 | – | – | – | – | 1 | 1 | 1.04 | 1.03
NCI-H1395 | 0.622 | 0.628 | 0.677 | 0.635 | 0.628 | – | – | – | – | – | 0.749 | 0.802 | 0.722 | 0.666 | – | – | – | –
NCI-H1563 | – | – | – | – | – | 0.867 | 0.841 | 0.862 | 0.848 | 0.847 | – | – | – | – | 0.831 | 0.748 | 0.897 | 0.809
NCI-H1648 | 0.254 | – | 0.262 | 0.29 | 0.267 | – | – | – | – | – | – | 0.445 | 0.528 | 0.272 | – | – | – | –
NCI-H1703 | – | – | – | – | – | 0.67 | 0.712 | 0.147 | 0.219 | 0.125 | – | – | – | – | 0.36 | 0.362 | 0.29 | 0.31
NCI-H1792 | 0.68 | 0.683 | 0.648 | 0.687 | 0.677 | 1.05 | 0.958 | 0.933 | 1.17 | 0.943 | – | – | – | – | 0.943 | 0.968 | 0.927 | 0.813
NCI-H1793 | 0.295 | 0.321 | 0.302 | 0.36 | 0.43 | – | – | – | – | – | 0.851 | 0.875 | 0.663 | 0.474 | – | – | – | –
NCI-H1944 | 0.356 | 0.315 | 0.335 | 0.324 | 0.3 | 1.05 | 1.19 | 1.03 | 1.21 | 1.07 | 0.565 | 0.448 | 0.501 | 0.492 | – | – | – | –
NCI-H2170 | 0.384 | 0.432 | 0.38 | 0.422 | 0.417 | 1.21 | 1.18 | 1.19 | 1.18 | 1.17 | 0.852 | 0.812 | 0.74 | – | – | – | – | –
NCI-H2342 | 0.521 | 0.545 | 0.574 | 0.533 | 0.598 | – | – | – | – | – | 0.739 | 0.766 | 0.788 | 0.614 | – | – | – | –
SK-MES-1 | 0.335 | 0.32 | 0.31 | 0.314 | 0.34 | 1 | 1 | 0.857 | 1.02 | 0.973 | 1.16 | 0.945 | 1.06 | 0.935 | – | – | – | –
SW 900 | 0.591 | – | 0.449 | 0.523 | 0.554 | – | – | – | – | – | 0.501 | 0.438 | 0.593 | 0.444 | – | – | – | –
